Experimental data published in US20160015670A1, “COMPOUND, 1-PALMITIN-2-LINOLEIN-3-OLEIN, AND PHARMACEUTICAL PREPARATION AND USE THEREOF” (priority 2014, published 2016).
≈ marks a conversion by molar mass, not a printed value.

Key:
Test in all cases: MTT method in vitro, inhibition of cell growth
Format in all cases: cell-based
[1] = system: SMMC-7721 (human liver cancer cells); conditions: SMMC-7721, MTT, 48 h
Text: (§1) (1) Cell lines: PANC-1 (human pancreatic cancer cells), SKOV3 (human ovarian cancer cells), MCF-7 (human breast cancer cells), SMMC-7721 (human liver cancer cells), A549 (human lung cancer cells), BGC-823 (human gastric cancer cells), COLO205 (human colonic cancer cells), storaged and passaged maintainably in Research and Evaluation Center for Pharmacology, Shanghai Institute of Pharmaceutical Industry;
(§2) The inhibition effects of the compound of formula (I) on the above-mentioned cell lines were detected by using MTT method. The specific procedures were as follows:
(§3) (1) Cell culture: (a) Storaged cells were taken out from the liquid nitrogen, thawed quickly in a 37 water bath, then aseptically transferred into 6 ml of cellular medium in a 10 ml centrifugal tube, centrifuged at 1000 rpm for 5 min. The supernatant was discarded, then the precipitated cells were re-suspended in 5-6 ml cellular media by pipetting and transferred into a flask in a 37 incubator for cell culture; (b) Next day, the flask was taken out from the incubator and the used medium was discarded, then the cells were incubated in 5-6 ml fresh medium in the 37 incubator; (c) On the third day, the flask was taken out from the incubator and the used medium was discarded, then 2-3 ml of PBS (pH7.4) was added into the flask with rocking for cleaning it and the used PBS was discarded. Such a cellular cleaning step was repeated once again. 3-5 drops of 0.25% trypsin solution were added into the flask with sloshing, thus well-distributed in it. The flask was capped and placed in a 37 incubator for about 3 min, and the separation of cells from the flask wall was observed under the microscope. 2 ml of cellular medium was added and cells were separated completely from the flask wall by pipetting, then the cell suspension was transferred into 2 separate clean flasks, each containing 5-6 ml medium. The cell suspension was well-distributed by pipetting, then the flask was placed in a 37 incubator. (d) Step (c) was repeated every other day. […]
(§4) (4) Cells in a logarithmic growth stage were trypsinized and washed, then re-suspended in the medium containing 10% calf serum. The number of living cells was counted in Trypan blue dye exclusion method and cell suspensions were adjusted into a density of 2×10^5 cell/ml. […]
(§5) (7) 100 μl of crystal dissolving solution was added into each well and cells were incubated continuously in the incubator overnight, so as to dissolve the resulted formazan crystals sufficiently. Then, the absorbance value was measured at 570 nm for each well.
(§6) (8) Based on absorbance values, inhibition rates on the cell growth were calculated for sample groups of various concentrations. […]
(§7) (1−mean absorbance of experimental wells/mean absorbance of control wells)×100%

[2] = system: BGC-823 (human gastric cancer cells); conditions: BGC-823, MTT, 48 h
Text: as §1, §2, §3, §4, §5, §6, §7

[3] = system: PANC-1 (human pancreatic cancer cells); conditions: PANC-1, MTT, 48 h
Text: as §1, §2, §3, §4, §5, §6, §7

[4] = system: COLO205 (human colonic cancer cells); conditions: COLO 205, 48 h
Text: as §1, §2, §3, §4, §5, §6, §7

IC50 [1]: 0.12 µg/mL (≈ 0.141 µM)
IC50 [2]: 0.24 µg/mL (≈ 0.281 µM)
IC50 [3]: 0.44 µg/mL (≈ 0.515 µM)
IC50 [4]: 0.75 µg/mL (≈ 0.878 µM)
SMILES: CC(=O)O[C@H]1C(=O)[C@@]2(C)[C@H]([C@H](OC(=O)c3ccccc3)[C@]3(O)C[C@H](OC(=O)[C@H](O)[C@@H](NC(=O)c4ccccc4)c4ccccc4)C(C)=C1C3(C)C)[C@]1(OC(C)=O)CO[C@@H]1C[C@@H]2O [Taxol, reference compound]
